The target of test [1] is T1, recombinant human 11β-HSD1 (Homo sapiens, UniProt P28845).
T1 construct: The gene encoding 11β-HSD1 (Genebank: NC_018912.2) was cloned into the pET-28a vector (Novagen); hexa-histidine (C, cleaved yes); made in house; host or cells: E. coli BL21(DE3)
Nature of the test: 11β-HSD1 enzyme inhibition assay (cortisone to cortisol, HPLC-MS/MS). The test is classed as biochemical. As to conditions: cortisone 50 μM, NADPH 1 mM, 37 °C, 30 min, read-out: IC50 (inhibitory activities against 11β-HSD1). The method, then:
To explore the 11β-HSD1 inhibitory activities of compounds 1–8 in vitro, recombinant human 11β-HSD1 protein was incubated with various concentrations of compounds and the enzymatic activity (cortisone to cortisol) was tested using HPLC-MS/MS (Fig. 3).
(§1) The gene encoding 11β-HSD1 (Genebank: NC_018912.2) was cloned into the pET-28a vector (Novagen). After the recombinant plasmids were verified by sequencing, the plasmid was transformed into E. coli BL21(DE3) (Invitrogen) which were grown in LB medium at 37 °C to an OD600 (0.8–1.0) and induced by 0.4 mM isopropyl -D-thiogalactopyranoside (IPTG) at 20 °C for 16 hours. Bacterial cells were lysed by ultrasonification on ice in a buffer containing 20 mM Tris, pH 8.5, 200 mM NaCl, 5 mM mercaptoethanol, 0.1% TritonX-100, and 5% glycerol. Soluble C-terminally hexa-histidine tagged 11β-HSD1 was bound to Ni-agarose affinity resin (Qiagen), washed with a buffer containing 20 mM Tris, pH 8.5, 200 mM NaCl, and 10 mM imidazole, and eluted with a buffer containing 20 mM Tris, pH 8.8, 250 mM NaCl, and 150 mM imidazole. Thrombin (Roche) was added at one unit per 4 mg protein to the elute, which was then dialyzed against 20 mM Tris pH 8.5 and 100 mM NaCl at room temperature for overnight digestion. After thrombin digestion to remove the hexahistidine tag, contaminant proteins were removed by loading the elute onto a second cobalt affinity column equilibrated in the dialyzing buffer and collecting the flow-through. The protein was further purified with anion exchange chromatography, using a linear gradient of 10 mM to 1 M NaCl concentration and size exclusion chromatography at 20 mM Tris pH 8.5 and 200 mM NaCl[22][23].
The inhibitory effects of 1–8 on 11β-HSD1 were measured using recombinant human 11β-HSD1 protein through HPLC-MS/MS method. Briefly, 2.5 μL recombinant 11β-HSD1 protein (0.512 mg protein/ml) was added to 100 μL buffer (100 mM KCl, 20 mM NaCl, 20 mM Hepes, pH 7.5) containing NADPH (1 mM) and cortisone (50 μM) with or without various concentrations of compounds. The reactants were incubated at 37 °C for 30 min. After extraction with dichloromethane, evaporation and resolvation with 200 μL methanol, cortisone and cortisol were measured by HPLC-MS/MS and multi-reactions monitoring (MRM) technology. Detection was performed using a Shimadzu LC-20AD HPLC system equipped with an SHIMADZU VP-ODS 150 L × 4.6 mm column connected to a API 4000 LC/MS/MS system. Samples were analyzed after injection and equilibrated with 45% solution A (0.1% formic acid in water) and 55% solution B (Methanol) under isocratic elution with the flow rate of 0.8 mL/min. The HPLC eluent were tested by HPLC-MS/MS using collision energy 33 eV (cortisol) and 30 eV […] in positive ion mode. Analyst quantitation optimization wizard was used to optimize the collision energies and other electric lens settings for MRM detections. The inhibition rates were calculated using the concentration ratios of cortisone and cortisol in tubes with or without various compounds.

Test [2] addresses T1, recombinant human 11β-HSD1. Nature of the test: Binding affinity assay using microscale thermophoresis (MST). The note with it: labelled 11β-HSD1 50 nM, 22 °C, means ± SD for three experiments; for Kd: read-out: Kd (dissociation constant with 11β-HSD1).
Source text: Measuring the thermophoretic behaviour of a protein in the presence of differing ligand concentrations by MST allows quantitative analysis of molecular interactions in solution. The MST technique has previously been used to investigate protein-protein, small organic molecule-protein and antibody-protein interactions.
as §1
The ability of the purified 11β-HSD1 to bind with potential ligands was analyzed using MST. The protein was labeled with the Monolith NT™ Protein Labeling Kit RED (Cat#L001) according to the supplied labeling protocol. Labelled 11β-HSD1 was kept constant at 50 nM, while all samples tested were diluted in a 20 mM HEPES (pH 7.5) and 0.05 (v/v)% Tween-20. Compounds were diluted in 12 dilution steps covering the range of appropriate concentrations. After 10 min incubation at room temperature, samples were loaded into Monolith^TM standard-treated capillaries and the thermophoresis was measured at 22 °C after 30 min incubation on a Monolith NT.115 instrument (NanoTemper Technologies, München, Germany). Laser power was set to 40% using 30 seconds on-time and the LED power was set to 100%. The dissociation constrant Kd values were fitted by using the NTAnalysis software (NanoTemper Technologies, München, Germany).
(In general: Microscale thermophoresis detects binding through changes in fluorescence in a small temperature gradient.)

The next test concerns 3T3-L1 preadipocytes. Nature of the test: Lipid accumulation in differentiation-induced 3T3-L1 preadipocytes (Oil Red O staining). The test is classed as cell-based. As to conditions: 3T3-L1 preadipocytes induced to differentiate, 50 μM compound, 6 days. Here is the method: It was reported that 11β-HSD1 is highly expressed in normal liver[18] and stimulates pre-adipocyte differentiation. As a result, many 11β-HSD1 inhibitors were investigated to prevent adipogenesis. To further examine the 11β-HSD1 inhibitory effects of compound 3, we examined the anti-adipogenic effect of compound 3 during the differentiation of 3T3-L1 cells.
(§2) 3T3-L1 preadipocytes were purchased from Shanghai Institute of Cell Biology, Chinese Academy of Sciences. Both of them were cultured in DMEM medium (Gibco, USA) containing 10% FBS, penicillin (100 U/mL), streptomycin […] in 5% CO2 at 37 °C. 3T3-L1 preadipocytes were induced to differentiate as previously described. In short, differentiation was induced by adding 0.5 mmol/L 3-isobutyl-1-methyxanthine (Sigma), 10 μg/mL insulin (Sigma), and […] dexamethasone (Sigma) to the medium. After 48 h incubation (d2), the medium was replaced with DMEM containing 10 μg/mL insulin and 50 μM compound 3. On d4, the medium was replaced with DMEM containing compound 3, and then changed back to the same medium every on d6.
Preadipocytes 3T3-L1 were induced to differentiate with or without compounds 3 for 6 days, and then washed twice with PBS, fixed in 3.7% formaldehyde for 1 h and stained with Oil Red O for another 1 h at room temperature. Cells were then washed several times with PBS, and photographed by a light microscope (Olympus, Japan).

Test [3] deals with 11β-HSD1 expression in 3T3-L1 cells. Nature of the test: 11β-HSD1 expression in 3T3-L1 cells (western blot). The test is classed as cell-based. The note with it: differentiation-induced 3T3-L1 preadipocytes, β-Actin loading control. The method, then:
Figure 5 Effects of compound 3 on lipid accumulation and 11β-HSD1 expression in 3T3-L1 cells. Preadipocytes were induced to differentiate in the presence or absence of compound 3, which was then stained with Oil Red O and photographed (40×). 11β-HSD1 expressions were determined by western blot. β-Actin was used as a loading control.
as §2
Cells were treated and then lysed in a radio immune-precipitation assay buffer. Protein concentrations were determined using a BCA protein assay kit (Byontime, Beijing, China) and equalized before loading. […]
(In general: Immunoblotting shows a protein as a band on a membrane.)

Entries after “also recorded” stand apart in the source; their conditions may differ.

T1 sequence (P28845 whole entry): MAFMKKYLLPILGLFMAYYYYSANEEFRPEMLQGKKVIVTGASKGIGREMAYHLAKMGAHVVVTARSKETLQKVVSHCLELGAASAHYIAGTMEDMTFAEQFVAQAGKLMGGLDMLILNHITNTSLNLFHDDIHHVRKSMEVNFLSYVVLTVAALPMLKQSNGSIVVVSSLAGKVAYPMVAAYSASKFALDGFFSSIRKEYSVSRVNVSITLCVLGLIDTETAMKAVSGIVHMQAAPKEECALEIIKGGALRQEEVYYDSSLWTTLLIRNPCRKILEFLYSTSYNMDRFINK

Turning to `CC(=O)c1cc(C)c(O)c(C[C@]23Cc4c(O)c(C(C)=O)cc(C)c4O[C@@]2(O)[C@@H](C)OC3=O)c1O` [Compound 8, penilactones A], the IC50 (commonly the concentration that gives 50% inhibition) in test [1] is above 200 µM. The “Kd (dissociation constant with 11β-HSD1)” value in test [2] is “either no binding or no statistically significant binding was detected and n.b”.

On to `CC(C)=CCC[C@]1(C)[C@@H](O)CC[C@@]2(C)[C@H]1CC[C@H]1Cc3c([nH]c4ccccc34)[C@@]12C` [Compound 7, emindole SB], for which, in test [1], the IC50 was above 200 µM. Besides, the “Kd (dissociation constant with 11β-HSD1)” value in test [2] is “either no binding or no statistically significant binding was detected and n.b”.

`CN1C(=O)c2ccccc2NC(=O)/C1=C/c1ccccc1` [Compound 4, 3-benzylidene-3,4-dihydro-4-methyl-lH-l,4-benzodiazepine-2,5-dione]: the 50% inhibitory concentration (IC50) in test [1] is above 200 µM. In test [2], the “Kd (dissociation constant with 11β-HSD1)” value is “either no binding or no statistically significant binding was detected and n.b”.

In the case of `CN1C(=O)c2ccccc2NC(=O)[C@@H](Cc2ccccc2)N(C)C(=O)c2ccccc2NC(=O)[C@H]1Cc1ccccc1` [Compound 3, Penicopeptide A], in test [1], the 50% inhibitory concentration (IC50) was 9.07 ± 0.61 µM. In addition, the lipid droplet accumulation result in the test with 3T3-L1 preadipocytes was “decreased the lipid droplet accumulation”. In addition, in test [3], the 11β-HSD1 expression result was “inhibition of 11β-HSD1 expression”. The equilibrium dissociation constant (Kd) (as a rule, the concentration at which binding is half-saturated) in test [2] was found to be 82.1 ± 5.01 µM.

Take `CN1C(=O)c2ccccc2NC(=O)C12OC2c1ccccc1` (centres unmarked) [Compound 6, cyclopenin]: the equilibrium dissociation constant (Kd) in test [2] stood at 513 ± 10.6 µM.

On to `CN1C(=O)c2ccccc2NC(=O)C12OC2c1cccc(O)c1` (single isomer, unassigned; (+)) [Compound 5, (+)-cyclopenol], for which the concentration for half-maximal inhibition (IC50) in test [1] came out at 45.5 ± 7.82 µM. The equilibrium dissociation constant (Kd) in test [2] turned out to be 421 ± 12.1 µM.

Take `CC(=O)c1cc(C)c2c(c1O)C[C@H](C)[C@@]1(C[C@@H](O)C[C@@H](C)O1)O2` [Compound 1, Penicophenone A]: in test [1], the half-maximal inhibitory concentration (IC50) is above 200 µM. Further, the “Kd (dissociation constant with 11β-HSD1)” value in test [2] is reported as “either no binding or no statistically significant binding was detected; also recorded: n.b.b”.

For `COc1cc(Cc2c(O)c(C)cc(C(C)=O)c2O)c(OC)cc1O` [Compound 2, Penicophenone B], the 50% inhibitory concentration (IC50) in test [1] is above 200 µM. In addition, the “Kd (dissociation constant with 11β-HSD1)” value in test [2] is “either no binding or no statistically significant binding was detected and n.b”.
